In the assay the target is human APJ receptor (Homo sapiens (Human), UniProt P35414). The experiment in a line: Intracellular cAMP accumulation assay (APJ hcAMP, HTRF). It counts as cell-based. The note with it: read-out: Human APJ cAMP EC50 Potency range. An outline of the steps: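 HEK293 cells stably expressing human APJ, 5,000 per well, incubated 30 min at rt with compound, […] and 2 μM forskolin. cAMP measured by HTRF against a cAMP standard curve as inhibition of forskolin-driven production. EC50 from variable-slope sigmoidal fit.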
Chain of human APJ receptor (P35414 whole entry): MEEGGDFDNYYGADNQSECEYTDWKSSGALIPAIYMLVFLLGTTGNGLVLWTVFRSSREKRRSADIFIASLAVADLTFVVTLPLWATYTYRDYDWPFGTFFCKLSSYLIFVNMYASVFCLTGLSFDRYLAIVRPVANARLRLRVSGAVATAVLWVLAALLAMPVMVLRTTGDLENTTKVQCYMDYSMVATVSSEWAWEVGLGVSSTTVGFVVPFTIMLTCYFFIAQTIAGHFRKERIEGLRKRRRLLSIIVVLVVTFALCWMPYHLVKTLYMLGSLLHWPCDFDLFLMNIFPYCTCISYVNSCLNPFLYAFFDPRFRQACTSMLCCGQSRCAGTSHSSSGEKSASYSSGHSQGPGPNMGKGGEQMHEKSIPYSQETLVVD
(cAMP levels reflect the balance of adenylyl cyclase and phosphodiesterase activity.)

Where [1] appears, read: HEK293 cells stably expressing human APJ receptor, inhibition of forskolin-mediated cAMP production.

Like-named read-outs stand apart in the source and are kept apart here.

As a reminder, the EC50 is the concentration that produces a half-maximal response.

For the compound `CCOCc1nc(=O)c(S(=O)(=O)c2ccc(-c3ccc(F)nc3C)c(F)c2)c(O)n1C(COC)c1cccc(F)c1` (centres unmarked) [Example 347, 2-(ethoxymethyl)-5-[3-fluoro-4-(6-fluoro-2-methylpyridin-3-yl)benzenesulfonyl]-1-[1-(3-fluorophenyl)-2-methoxyethyl]-6-hydroxy-1,4-dihydropyrimidin-4-one], for the setting “human APJ, cAMP accumulation”, the EC50 is 0.01 to 10 nM.
Still for that read-out and setting: then `CCCCc1nc(=O)c(S(=O)(=O)c2ccc(C3CC3)cc2)c(O)n1[C@@H](CC)c1cccc(C#N)c1` [Example 348, 3-[(1S)-1-[2-butyl-5-(4-cyclopropylbenzene-sulfonyl)-6-hydroxy-4-oxo-1,4-dihydropyrimidin-1-yl]propyl]benzonitrile], with 0.01 to 10 nM; and `COC[C@@H](c1ccccc1)n1c(C2CCCO2)nc(=O)c(S(=O)(=O)c2ccc(Br)cc2)c1O` (stereo partly drawn) [Example 349, 5-(4-bromobenzenesulfonyl)-6-hydroxy-1-[(1R)-2-methoxy-1-phenylethyl]-2-(oxolan-2-yl)-1,4-dihydropyrimidin-4-one], with 100 to 300 nM.
On to `C=C(c1cccc(C#N)c1)n1c(CCCC)nc(=O)c(S(=O)(=O)c2ccc(-c3ccncc3C)cc2)c1O` [Example 360, 3-(1-(2-butyl-6-hydroxy-5-((4-(3-methylpyridin-4-yl)phenyl)sulfonyl)-4-oxopyrimidin-1 (4H)-yl)vinyl)benzonitrile], for which the EC50 under setting [1] is 0.01 to 10 nM.
The same measure, in the same setting: then `CCOCc1nc(=O)c(S(=O)(=O)c2ccc(C(C)(C)C)cc2)c(O)n1-c1c(CC)cccc1CC` [Example 361, 5-(4-tert-butylbenzenesulfonyl)-1-(2,6-diethylphenyl)-2-(ethoxymethyl)-6-hydroxy-1,4-dihydropyrimidin-4-one], with 0.01 to 10 nM; and `CCCCc1nc(=O)c(S(=O)(=O)c2ccc(C(C)(C)C)cc2)c(O)n1-c1c(CC)cccc1CC` [Example 362, 2-butyl-5-(4-tert-butylbenzenesulfonyl)-1-(2,6-diethylphenyl)-6-hydroxy-1,4-dihydropyrimidin-4-one], with 0.01 to 10 nM; and `CCCCc1nc(=O)c(S(=O)(=O)c2ccc(C(C)(C)C)cc2)c(O)n1-c1c(OC)cccc1OC` [Example 363, 2-butyl-5-(4-tert-butylbenzenesulfonyl)-1-(2,6-dimethoxyphenyl)-6-hydroxy-1,4-dihydropyrimidin-4-one], with 0.01 to 10 nM.
Still for that read-out and setting: under `CCCCc1nc(=O)c(S(=O)(=O)[C@H]2CC[C@H](OCc3ccccc3)CC2)c(O)n1-c1c(CC)cccc1CC` [Example 364, 2-butyl-1-(2,6-diethylphenyl)-6-hydroxy-5-{[(1r,4r)-4-(benzyloxy)cyclohexyl]sulfonyl}-1,4-dihydropyrimidin-4-one] stands 0.01 to 10 nM; under `CCCCc1nc(=O)c(S(=O)(=O)[C@H]2CC[C@@H](OCc3ccccc3)CC2)c(O)n1-c1c(CC)cccc1CC` [Example 365, 2-butyl-1-(2,6-diethylphenyl)-6-hydroxy-5-{[(1s,4s)-4-(benzyloxy)cyclohexyl]sulfonyl}-1,4-dihydropyrimidin-4-one], 0.01 to 10 nM.
In the case of `CCCCc1nc(=O)c(S(=O)(=O)[C@H]2CC[C@H](OCc3ccccc3)CC2)c(O)n1-c1c(OC)cccc1OC` [Example 366, 2-butyl-1-(2,6-dimethoxyphenyl)-6-hydroxy-5-{[(1r,4r)-4-(benzyloxy)cyclohexyl]sulfonyl}-1,4-dihydropyrimidin-4-one], the EC50 under setting [1] was in the range of 0.01 to 10 nM.
Regarding `CCCCc1nc(=O)c(S(=O)(=O)[C@H]2CC[C@@H](OCc3ccccc3)CC2)c(O)n1-c1c(OC)cccc1OC` [Example 367, 2-butyl-1-(2,6-dimethoxyphenyl)-6-hydroxy-5-{[(1s,4s)-4-(benzyloxy)cyclohexyl]sulfonyl}-1,4-dihydropyrimidin-4-one], the EC50 under setting [1] lay in the range of 0.01 to 10 nM.
With `COC[C@@H](c1cc(F)cc(F)c1)n1c(COC(C)C)nc(=O)c(S(=O)(=O)c2ccc(Br)cc2)c1O` [Example 368, 5-(4-bromobenzenesulfonyl)-1-[(1R)-1-(3,5-difluorophenyl)-2-methoxyethyl]-6-hydroxy-2-[(propan-2-yloxy)methyl]-1,4-dihydropyrimidin-4-one], under setting [1], the EC50 was 0.01 to 10 nM.
On the same count and under the same terms, then `CC[C@@H](c1cccc(C#N)c1)n1c(COC(C)C)nc(=O)c(S(=O)(=O)c2ccc(Br)cc2)c1O` [Example 369, 3-[(1S)-1-[5-(4-bromobenzenesulfonyl)-6-hydroxy-4-oxo-2-[(propan-2-yloxy)methyl]-1,4-dihydropyrimidin-1-yl]propyl]benzonitrile], with 0.01 to 10 nM; and `CCOCc1nc(=O)c(S(=O)(=O)c2ccc(Br)cc2)c(O)n1[C@@H](COC)c1cc(F)cc(F)c1` [Example 370, 5-(4-bromobenzenesulfonyl)-1-[(1R)-1-(3,5-difluorophenyl)-2-methoxyethyl]-2-(ethoxymethyl)-6-hydroxy-1,4-dihydropyrimidin-4-one], with 0.01 to 10 nM; and `COC[C@@H](c1cccc(C#N)c1)n1c(COC(C)C)nc(=O)c(S(=O)(=O)c2ccc(Br)cc2)c1O` [Example 371, 3-[(1R)-1-[5-(4-bromobenzenesulfonyl)-6-hydroxy-4-oxo-2-[(propan-2-yloxy)methyl]-1,4-dihydropyrimidin-1-yl]-2-methoxyethyl]benzonitrile], with 0.01 to 10 nM.
Regarding `CC(C)OCc1nc(=O)c(S(=O)(=O)c2ccc(Br)cc2)c(O)n1[C@H](c1cccc(C#N)c1)C1CC1` [Example 372, 3-[(S)-[5-(4-bromobenzenesulfonyl)-6-hydroxy-4-oxo-2-[(propan-2-yloxy)methyl]-1,4-dihydropyrimidin-1-yl](cyclopropyl)methyl] benzonitrile], the EC50 under setting [1] lay within 0.01 to 10 nM.
On the same count and under the same terms, under `CCOCc1nc(=O)c(S(=O)(=O)c2ccc(-c3ccnc(F)c3C)c(F)c2)c(O)n1C(COC)c1cccc(F)c1` (centres unmarked) [Example 373, 2-(ethoxymethyl)-5-[3-fluoro-4-(2-fluoro-3-methylpyridin-4-yl)benzenesulfonyl]-1-[1-(3-fluorophenyl)-2-methoxyethyl]-6-hydroxy-1,4-dihydropyrimidin-4-one] stands 0.01 to 10 nM.
Same read-out and setting: then `CCOCc1nc(=O)c(S(=O)(=O)c2ccc(-c3ccnc(F)c3C)c(F)c2)c(O)n1C(COC)c1cccc(F)c1` (centres unmarked) [Example 374, 2-(ethoxymethyl)-5-[3-fluoro-4-(2-fluoro-3-methylpyridin-4-yl)benzenesulfonyl]-1-[1-(3-fluorophenyl)-2-methoxyethyl]-6-hydroxy-1,4-dihydropyrimidin-4-one], with 0.01 to 10 nM; and `CCOCc1nc(=O)c(S(=O)(=O)c2ccc(-c3ccc(F)nc3C)c(F)c2)c(O)n1C(COC)c1cccc(F)c1` (centres unmarked) [Example 375, 2-(ethoxymethyl)-5-[3-fluoro-4-(6-fluoro-2-methylpyridin-3-yl)benzenesulfonyl]-1-[1-(3-fluorophenyl)-2-methoxyethyl]-6-hydroxy-1,4-dihydropyrimidin-4-one], with 0.01 to 10 nM; and `CCOCc1nc(=O)c(S(=O)(=O)c2ccc(-c3ccc(F)nc3C)c(F)c2)c(O)n1C(COC)c1cccc(F)c1` (centres unmarked) [Example 376, 2-(ethoxymethyl)-5-[3-fluoro-4-(6-fluoro-2-methylpyridin-3-yl)benzenesulfonyl]-1-[1-(3-fluorophenyl)-2-methoxyethyl]-6-hydroxy-1,4-dihydropyrimidin-4-one], with 0.01 to 10 nM.
On the same count and under the same terms, then `COC[C@@H](c1cc(F)cc(F)c1)n1c(COC(C)C)nc(=O)c(S(=O)(=O)c2ccc(-c3ccncc3C)cc2)c1O` [Example 377, 1-[(1R)-1-(3,5-difluorophenyl)-2-methoxyethyl]-6-hydroxy-5-[4-(3-methylpyridin-4-yl)benzenesulfonyl]-2-[(propan-2-yloxy)methyl]-1,4-dihydropyrimidin-4-one], with 0.01 to 10 nM.
`COC[C@@H](c1cc(F)cc(F)c1)n1c(COC(C)C)nc(=O)c(S(=O)(=O)c2ccc(-c3ccnc(F)c3C)cc2)c1O` [Example 378, 1-[(1R)-1-(3,5-difluorophenyl)-2-methoxyethyl]-5-[4-(2-fluoro-3-methylpyridin-4-yl)benzenesulfonyl]-6-hydroxy-2-[(propan-2-yloxy)methyl]-1,4-dihydropyrimidin-4-one]: under setting [1], the EC50 fell in the range of 0.01 to 10 nM.
Regarding `COC[C@@H](c1cc(F)cc(F)c1)n1c(COC(C)C)nc(=O)c(S(=O)(=O)c2ccc(-c3cccnc3C)cc2)c1O` [Example 379, 1-[(1R)-1-(3,5-difluorophenyl)-2-methoxyethyl]-6-hydroxy-5-[4-(2-methylpyridin-3-yl)benzenesulfonyl]-2-[(propan-2-yloxy)methyl]-1,4-dihydropyrimidin-4-one], the EC50 under setting [1] was 0.01 to 10 nM.
Consider `COC[C@@H](c1cc(F)cc(F)c1)n1c(COC(C)C)nc(=O)c(S(=O)(=O)c2ccc(-c3ccc(F)nc3C)cc2)c1O` [Example 380, 1-[(1R)-1-(3,5-difluorophenyl)-2-methoxyethyl]-5-[4-(6-fluoro-2-methylpyridin-3-yl)benzenesulfonyl]-6-hydroxy-2-[(propan-2-yloxy)methyl]-1,4-dihydropyrimidin-4-one], for which the EC50 under setting [1] was 0.01 to 10 nM.
The same measure, in the same setting: then `CC[C@@H](c1cccc(C#N)c1)n1c(COC(C)C)nc(=O)c(S(=O)(=O)c2ccc(-c3ccnc(F)c3C)cc2)c1O` [Example 381, 3-[(1S)-1-{5-[4-(2-fluoro-3-methylpyridin-4-yl)benzenesulfonyl]-6-hydroxy-4-oxo-2-[(propan-2-yloxy)methyl]-1,4-dihydropyrimidin-1-yl}propyl]benzonitrile], with 0.01 to 10 nM; and `CC[C@@H](c1cccc(C#N)c1)n1c(COC(C)C)nc(=O)c(S(=O)(=O)c2ccc(-c3ccc(F)nc3C)cc2)c1O` [Example 382, 3-[(1S)-1-{5-[4-(6-fluoro-2-methylpyridin-3-yl)benzenesulfonyl]-6-hydroxy-4-oxo-2-[(propan-2-yloxy)methyl]-1,4-dihydropyrimidin-1-yl}propyl]benzonitrile], with 0.01 to 10 nM.

For the origin of these results see US10508104B2, “6-hydroxy-5-(phenyl/heteroarylsulfonyl)pyrimidin-4(1H)-one as APJ agonists” (Bristol-Myers Squibb Company, priority 2016, dated 2019).
